From ChEMBL document CHEMBL4417636, “Small molecule inhibitors of pendrin ion exchange and pharmaceutical compositions” (2017)
Active and inactive are the calls of the source. No cut-off for these calls is given here.

Columns and labels:
[1] = target: T1, Pendrin (Mus musculus) (UniProt Q9R155); test: Inhibition of mouse pendrin expressed in FRT cells co-expressing YFP-HIF assessed as reduction in pendrin-mediated kinetics of CI7HCO3(-) exchange by pH-sensitive fluorescent probe BCECF-AM based fluorescence assay relative to control; format: cell-based
T1 sequence (whole entry): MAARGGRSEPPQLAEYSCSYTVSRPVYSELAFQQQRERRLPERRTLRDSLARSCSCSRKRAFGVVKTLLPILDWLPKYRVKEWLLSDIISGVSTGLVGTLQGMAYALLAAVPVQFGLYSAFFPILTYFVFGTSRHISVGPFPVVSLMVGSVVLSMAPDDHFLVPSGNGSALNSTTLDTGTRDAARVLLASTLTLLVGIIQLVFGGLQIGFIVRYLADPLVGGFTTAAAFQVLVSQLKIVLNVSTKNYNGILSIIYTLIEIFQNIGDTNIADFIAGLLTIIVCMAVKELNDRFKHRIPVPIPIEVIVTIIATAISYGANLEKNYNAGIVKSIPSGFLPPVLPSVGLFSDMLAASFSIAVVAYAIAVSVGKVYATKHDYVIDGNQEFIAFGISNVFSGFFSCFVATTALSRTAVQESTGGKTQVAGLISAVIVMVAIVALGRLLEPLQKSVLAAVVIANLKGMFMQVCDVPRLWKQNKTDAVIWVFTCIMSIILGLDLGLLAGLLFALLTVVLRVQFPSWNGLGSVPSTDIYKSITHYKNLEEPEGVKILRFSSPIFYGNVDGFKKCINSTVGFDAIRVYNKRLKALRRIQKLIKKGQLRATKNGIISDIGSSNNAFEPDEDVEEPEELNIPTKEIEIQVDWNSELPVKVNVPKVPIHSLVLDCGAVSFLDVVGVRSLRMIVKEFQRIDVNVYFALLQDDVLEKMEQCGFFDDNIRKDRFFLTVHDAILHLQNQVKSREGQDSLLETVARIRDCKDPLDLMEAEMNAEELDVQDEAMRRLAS

[2] = target: T2, Pendrin (Homo sapiens) (UniProt O43511); test: Inhibition of human pendrin expressed in FRT cells co-expressing EYFP-HIF assessed as reduction in pendrin-mediated C17HCO3(-) exchange by measuring reduction in cytoplasmic alkalinization exchange at 2.5 uM by pH-sensitive fluorescent probe BCECF-AM based fluorescence assay relative to control; format: cell-based
T2 sequence (whole entry): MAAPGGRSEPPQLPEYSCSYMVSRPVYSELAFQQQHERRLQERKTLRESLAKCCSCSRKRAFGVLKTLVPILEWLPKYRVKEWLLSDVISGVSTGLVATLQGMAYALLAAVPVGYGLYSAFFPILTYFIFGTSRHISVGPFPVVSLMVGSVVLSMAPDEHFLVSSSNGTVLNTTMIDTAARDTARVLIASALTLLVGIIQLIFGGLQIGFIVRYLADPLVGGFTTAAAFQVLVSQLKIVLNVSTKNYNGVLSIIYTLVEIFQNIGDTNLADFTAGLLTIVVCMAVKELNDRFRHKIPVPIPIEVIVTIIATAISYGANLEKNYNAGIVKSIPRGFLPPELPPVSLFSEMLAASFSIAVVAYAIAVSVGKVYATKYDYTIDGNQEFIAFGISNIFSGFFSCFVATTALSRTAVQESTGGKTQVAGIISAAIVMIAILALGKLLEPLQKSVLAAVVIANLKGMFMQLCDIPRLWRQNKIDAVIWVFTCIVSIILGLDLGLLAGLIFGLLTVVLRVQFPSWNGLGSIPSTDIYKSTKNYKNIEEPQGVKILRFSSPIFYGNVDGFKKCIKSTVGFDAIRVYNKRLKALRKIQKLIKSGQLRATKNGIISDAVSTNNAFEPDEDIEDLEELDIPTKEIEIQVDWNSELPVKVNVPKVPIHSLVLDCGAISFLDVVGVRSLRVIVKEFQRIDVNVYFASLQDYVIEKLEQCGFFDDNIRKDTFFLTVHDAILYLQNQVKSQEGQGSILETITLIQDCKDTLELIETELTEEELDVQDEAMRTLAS

[3] = target: T3, Solute carrier family 12 member 2 (Homo sapiens) (UniProt P55011); test: Inhibition of NKCC1 in human bronchial epithelial cells assessed as effect on short-circuit current at 25 uM pre-incubated for 30 mins
T3 sequence (whole entry): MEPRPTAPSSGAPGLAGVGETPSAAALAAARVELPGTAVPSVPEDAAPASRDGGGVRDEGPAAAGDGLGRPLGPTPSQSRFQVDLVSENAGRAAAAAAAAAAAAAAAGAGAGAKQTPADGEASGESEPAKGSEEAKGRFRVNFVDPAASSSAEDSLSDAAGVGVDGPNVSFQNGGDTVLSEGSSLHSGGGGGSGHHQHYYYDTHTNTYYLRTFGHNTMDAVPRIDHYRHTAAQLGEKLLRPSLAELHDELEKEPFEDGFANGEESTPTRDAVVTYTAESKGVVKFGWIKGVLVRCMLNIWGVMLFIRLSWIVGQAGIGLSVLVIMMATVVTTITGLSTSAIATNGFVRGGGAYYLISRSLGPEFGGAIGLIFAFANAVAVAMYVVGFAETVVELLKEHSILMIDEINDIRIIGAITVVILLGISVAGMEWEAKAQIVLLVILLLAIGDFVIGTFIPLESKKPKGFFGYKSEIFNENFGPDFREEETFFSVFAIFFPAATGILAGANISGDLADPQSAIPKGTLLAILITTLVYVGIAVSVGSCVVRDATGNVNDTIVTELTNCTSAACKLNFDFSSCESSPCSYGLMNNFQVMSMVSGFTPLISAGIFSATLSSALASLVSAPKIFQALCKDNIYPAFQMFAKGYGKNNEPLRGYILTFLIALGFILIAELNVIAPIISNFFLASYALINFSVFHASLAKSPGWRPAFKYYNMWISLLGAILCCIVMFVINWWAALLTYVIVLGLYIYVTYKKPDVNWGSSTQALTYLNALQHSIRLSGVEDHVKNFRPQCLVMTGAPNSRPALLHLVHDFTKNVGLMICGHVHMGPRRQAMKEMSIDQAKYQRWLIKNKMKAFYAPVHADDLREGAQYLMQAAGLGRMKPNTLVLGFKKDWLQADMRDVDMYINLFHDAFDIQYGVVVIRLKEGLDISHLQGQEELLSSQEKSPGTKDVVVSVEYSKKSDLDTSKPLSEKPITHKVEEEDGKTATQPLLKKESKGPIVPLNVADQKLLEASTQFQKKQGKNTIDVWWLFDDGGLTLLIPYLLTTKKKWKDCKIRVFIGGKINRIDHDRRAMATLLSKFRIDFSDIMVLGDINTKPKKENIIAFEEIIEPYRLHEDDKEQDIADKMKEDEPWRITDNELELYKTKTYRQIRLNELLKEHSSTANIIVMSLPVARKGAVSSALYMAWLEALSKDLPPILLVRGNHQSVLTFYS

[4] = organism: Homo sapiens; test: Effect on gluconate gradient-induced Cl(-) efflux in NHBE cells at 25 uM; format: functional, cell-based
[5] = organism: Homo sapiens; test: Inhibition of ENaC in human bronchial epithelial cells assessed as effect on short-circuit current at 25 uM pre-incubated for 30 mins

| SMILES | inhibition [1] | inhibition [2] [%] | inhibition [3] | Activity [4] | inhibition [5] |
| --- | --- | --- | --- | --- | --- |
| Cc1n[nH]c(-c2cc(S(=O)(=O)NC3CCCc4ccccc43)c(C)s2)c1C (stereo not given) | Dose-dependent effect |  |  |  |  |
| Cn1nc(COc2cccc(F)c2)c2c1CCN(C(=O)Nc1ccc(Cl)cc1)C2 |  | 50 | inactive | inactive | inactive |
